Where “and” joins values, the source holds several entries; their conditions need not be identical. Equal values may be shown once.
Biological target: T1, mTOR (Homo sapiens, UniProt P42345)
T1 construct: capturing of endogenously expressed target proteins from cell extracts by a bead-immobilized capturing ligand; endogenous in cells; host or cells: HuT-78 cells (ECACC 88041901), cell lysate
Test: mTOR kinobeads assay (competition-binding assay)
Conditions: HuT-78 cell extract, endogenously expressed mTOR, bead-immobilized capturing ligand; mean of multiple experiments; read-out: mean pIC50, affinity for mTOR (converted)
In short: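 Competition binding of endogenous mTOR from HuT-78 cell lysate (250 μg, 5 mg/ml) to immobilized Compound A/C beads, 2 h at 4 °C, pH 7.5, 2% DMSO, 11-point series. Bead-bound mTOR eluted, dot-blotted, detected by anti-mTOR infrared immunofluorescence; normalized to DMSO and 100 μM Compound B controls, 4-parameter fit to pIC50.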

Row | Compound | IC50
1 | CC[C@H]1COCCN1c1cc(CS(=O)(=O)N(C)C)cc(-c2ccc3[nH]c(CNC)cc3n2)n1 [Example 17, (S)-1-(2-(3-ethylmorpholino)-6-(2-((methylamino)methyl)-1H-pyrrolo[3,2-b]pyridin-5-yl)pyridin-4-yl)-N,N-dimethylmethanesulfonamide] | 2.51 to 31.6 nM and 2.51 to 316 nM
2 | CC[C@H]1COCCN1c1cc(C(C)(C)S(=O)(=O)C2CC2)cc(-c2ccc3[nH]c(CNC)cc3n2)n1 [Example 9, (S)-1-(5-(4-(2-(cyclopropylsulfonyl)propan-2-yl)-6-(3-ethylmorpholino)pyridin-2-yl)-1H-pyrrolo[3,2-b]pyridin-2-yl)-N-methylmethanamine] | 2.51 to 316 nM
3 | CNCc1cc2nc(-c3cc(CS(C)(=O)=O)cc(N4CCOC[C@@H]4C)n3)ccc2[nH]1 [Example 6, (S)—N-methyl-1-(5-(6-(3-methylmorpholino)-4-((methylsulfonyl)methyl)pyridin-2-yl)-1H-pyrrolo[3,2-b]pyridin-2-yl)methanamine] | 2.51 to 31.6 nM and 2.51 to 316 nM
4 | CC[C@H]1COCCN1c1cc(CS(=O)(=O)NC)cc(-c2ccc3[nH]c(CNC)cc3n2)n1 [Example 30, 1-{2-[(3S)-3-ethylmorpholin-4-yl]-6-{2-[(methylamino)methyl]-1H-pyrrolo[3,2-b]pyridin-5-yl}pyridin-4-yl}-N-methylmethanesulfonamide] | 2.51 to 31.6 nM and 2.51 to 316 nM
5 | CC[C@H]1COCCN1c1cc(CS(=O)(=O)N(C)C)cc(-c2ccc3[nH]c(CO)cc3n2)n1 [Example 35, 1-{2-[(3S)-3-ethylmorpholin-4-yl]-6-[2-(hydroxymethyl)-1H-pyrrolo[3,2-b]pyridin-5-yl]pyridin-4-yl}-N,N-dimethylmethanesulfonamide] | 2.51 to 31.6 nM and 2.51 to 316 nM
6 | CC[C@H]1COCCN1c1cc(C2(S(C)(=O)=O)CCOCC2)cc(-c2ccc3[nH]c(CO)cc3n2)n1 [Example 33, (5-{6-[(3S)-3-ethylmorpholin-4-yl]-4-(4-methanesulfonyloxan-4-yl)pyridin-2-yl}-1H-pyrrolo[3,2-b]pyridin-2-yl)methanol] | 2.51 to 31.6 nM and 2.51 to 316 nM
7 | CNCc1cc2nc(-c3cc(C(C)(C)S(C)(=O)=O)cc(N4CC5CCC(C4)O5)n3)ccc2[nH]1 [Example 4, 1-(5-(6-(8-oxa-3-azabicyclo[3.2.1]octan-3-yl)-4-(2-(methylsulfonyl)propan-2-yl)pyridin-2-yl)-1H-pyrrolo[3,2-b]pyridin-2-yl)-N-methylmethanamine] | 2.51 to 31.6 nM and 2.51 to 316 nM
8 | CNCc1cc2nc(-c3cc(C4(S(C)(=O)=O)CCOCC4)cc(N4C5CCC4COC5)n3)ccc2[nH]1 [Example 40, ({5-[4-(4-methanesulfonyloxan-4-yl)-6-{3-oxa-8-azabicyclo[3.2.1]octan-8-yl}pyridin-2-yl]-1H-pyrrolo[3,2-b]pyridin-2-yl}methyl)(methyl)amine] | 2.51 to 316 nM
9 | CC[C@H]1COCCN1c1cc(C2(S(=O)(=O)C3CC3)CC2)cc(-c2ccc3[nH]c(CNC)cc3n2)n1 [Example 11, (S)-1-(5-(4-(1-(cyclopropylsulfonyl)cyclopropyl)-6-(3-ethylmorpholino)pyridin-2-yl)-1H-pyrrolo[3,2-b]pyridin-2-yl)-N-methylmethanamine] | 2.51 to 316 nM
10 | CNCc1cc2nc(-c3cc(C(C)(C)S(C)(=O)=O)cc(N4CCOC[C@@H]4C)n3)ccc2[nH]1 [Example 2, (S)—N-methyl-1-(5-(6-(3-methylmorpholino)-4-(2-(methylsulfonyl)propan-2-yl)pyridin-2-yl)-1H-pyrrolo[3,2-b]pyridin-2-yl)methanamine] | 2.51 to 31.6 nM and 2.51 to 316 nM
11 | CC[C@H]1COCCN1c1cc(CS(=O)(=O)C2CC2)cc(-c2ccc3[nH]c(CNC)cc3n2)n1 [Example 10, (S)-1-(5-(4-((cyclopropylsulfonyl)methyl)-6-(3-ethylmorpholino)pyridin-2-yl)-1H-pyrrolo[3,2-b]pyridin-2-yl)-N-methylmethanamine] | 2.51 to 31.6 nM and 2.51 to 316 nM
12 | CC[C@H]1COCCN1c1cc(C2(S(C)(=O)=O)CCOCC2)cc(-c2ccc3[nH]c(CN)cc3n2)n1 [Example 23, 1-(5-{6-[(3S)-3-ethylmorpholin-4-yl]-4-(4-methanesulfonyloxan-4-yl)pyridin-2-yl}-1H-pyrrolo[3,2-b]pyridin-2-yl)methanamine] | 2.51 to 31.6 nM and 2.51 to 316 nM
13 | CC[C@H]1COCCN1c1cc(C(C)(C)S(C)(=O)=O)cc(-c2ccc3[nH]c(CO)cc3n2)n1 [Example 32] | 2.51 to 31.6 nM and 2.51 to 316 nM

Reference: patent US11254671B2, “Chemical compounds” (GLAXOSMITHKLINE INTELLECTUAL PROPERTY DEVELOPMENT LIMITED, priority 2017, dated 2022)
